Experiments:
[1] = target: Tumour suppressor p53/oncoprotein Mdm2 (Homo sapiens, UniProt Q00987); experiment: Competitive inhibition of MDM2/P53 interaction after 1 hr by fluorescence polarization assay; format: protein assay
HCT-116 = experiment: Antiproliferative activity against human HCT116 cells after 72 hrs by MTT assay; format: functional, cell-based
A549 = experiment: Antiproliferative activity against human A549 cells after 72 hrs by MTT assay; format: functional, cell-based
SW-620 = experiment: Antiproliferative activity against human SW620 cells after 72 hrs by MTT assay; format: functional, cell-based
PC-3 = experiment: Antiproliferative activity against human PC3 cells after 72 hrs by MTT assay; format: functional, cell-based
HL-60 = experiment: Antiproliferative activity against human HL60 cells after 72 hrs by MTT assay; format: functional, cell-based
[2] = target: Tumour suppressor p53/oncoprotein Mdm2 (Homo sapiens) (UniProt P04637+Q00987); experiment: Ratio of nutlin-1 IC50 to compound IC50 for MDM2 expressed in Escherichia coli BL-21 and P53 binding interaction after 1 hr by fluorescence polarization competitive binding assay
[3] = Homo sapiens, HCT-116, 72 h, read-out: IC50
[4] = Homo sapiens, A549, 72 h, read-out: IC50
[5] = Homo sapiens, SW-620, 72 h, read-out: IC50
[6] = Homo sapiens, PC-3, 72 h, read-out: IC50
[7] = Homo sapiens, HL-60, 72 h, read-out: IC50

Tumour suppressor p53/oncoprotein Mdm2, sequence (P04637 whole entry): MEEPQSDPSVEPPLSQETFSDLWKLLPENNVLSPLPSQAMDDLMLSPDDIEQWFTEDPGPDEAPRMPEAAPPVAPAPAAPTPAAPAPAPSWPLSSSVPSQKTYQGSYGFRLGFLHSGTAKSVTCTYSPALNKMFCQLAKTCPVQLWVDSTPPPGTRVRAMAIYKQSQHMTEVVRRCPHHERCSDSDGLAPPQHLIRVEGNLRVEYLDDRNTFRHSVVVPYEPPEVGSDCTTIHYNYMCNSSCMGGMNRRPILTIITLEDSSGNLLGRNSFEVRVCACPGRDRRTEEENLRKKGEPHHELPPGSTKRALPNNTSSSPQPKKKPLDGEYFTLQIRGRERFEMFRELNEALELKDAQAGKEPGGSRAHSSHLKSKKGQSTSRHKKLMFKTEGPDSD
Tumour suppressor p53/oncoprotein Mdm2, sequence (Q00987 whole entry): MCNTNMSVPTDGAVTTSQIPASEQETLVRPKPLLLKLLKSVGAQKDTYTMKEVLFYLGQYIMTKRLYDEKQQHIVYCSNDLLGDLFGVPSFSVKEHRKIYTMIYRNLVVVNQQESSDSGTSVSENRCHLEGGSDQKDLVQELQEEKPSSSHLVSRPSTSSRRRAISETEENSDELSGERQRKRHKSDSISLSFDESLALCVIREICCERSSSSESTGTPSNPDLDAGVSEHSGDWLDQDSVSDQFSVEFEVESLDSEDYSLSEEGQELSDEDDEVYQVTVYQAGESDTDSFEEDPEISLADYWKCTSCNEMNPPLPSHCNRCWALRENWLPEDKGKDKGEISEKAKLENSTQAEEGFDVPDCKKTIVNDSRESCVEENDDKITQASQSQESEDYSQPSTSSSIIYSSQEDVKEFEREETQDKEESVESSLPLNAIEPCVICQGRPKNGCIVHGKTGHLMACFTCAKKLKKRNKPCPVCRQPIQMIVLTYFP
Tumour suppressor p53/oncoprotein Mdm2 (Homo sapiens), sequence (P04637 whole entry, looked up): as the sequence (P04637 whole entry) above
Tumour suppressor p53/oncoprotein Mdm2 (Homo sapiens), sequence (Q00987 whole entry, looked up): as the sequence (Q00987 whole entry) above

| SMILES | IC50 ([1]; read-out: IC50) [µM] | IC50 (HCT-116; hct-116) | IC50 (A549; a549) | IC50 (SW-620; sw-620) | IC50 (PC-3; pc-3) | IC50 (HL-60; hl-60) | IC50 (HCT-116; [3]) [µM] | IC50 (A549; [4]) [µM] | IC50 (SW-620; [5]) [µM] | IC50 (PC-3; [6]) [µM] | IC50 (HL-60; [7]) [µM] | Ratio IC50 [2] | IC50 ([1]; read-out: pIC50 (converted)) [µM] |
| --- | --- | --- | --- | --- | --- | --- | --- | --- | --- | --- | --- | --- | --- |
| COc1ccc(C2=N[C@H](c3ccc(Cl)cc3)[C@H](c3ccc(Cl)cc3)N2C(=O)N[C@@H](C)C(=O)O)c(OC(C)C)c1 | 3.39 | Not Active | Not Active | Not Active | Not Active | Not Active |  |  |  |  |  |  |  |
| COc1ccc(C2=N[C@H](c3ccc(Cl)cc3)[C@H](c3ccc(Cl)cc3)N2C(=O)NCCC(=O)N2CCOCC2)c(OC(C)C)c1 | 2.23 |  |  |  |  |  | 3.78 | 3.96 | 5.89 | 7.58 | 3.6 |  |  |
| COc1ccc(C2=N[C@H](c3ccc(Cl)cc3)[C@H](c3ccc(Cl)cc3)N2C(=O)NCCC(=O)N2CCN(C)CC2)c(OC(C)C)c1 | 5.83 |  |  |  |  |  | 2.36 | 5.95 | 5.99 | 6.83 | 2.93 |  |  |
| CCN(CC)C(=O)[C@H](C)NC(=O)N1C(c2ccc(OC)cc2OC(C)C)=N[C@H](c2ccc(Cl)cc2)[C@@H]1c1ccc(Cl)cc1 | 12.6 |  |  |  |  |  | 2.01 | 3.31 | 4.6 | 5.32 | 4.22 |  |  |
| COc1ccc(C2=N[C@H](c3ccc(Cl)cc3)[C@H](c3ccc(Cl)cc3)N2C(=O)NCC(=O)N2CCN(C(C)=O)CC2)c(OC(C)C)c1 | 5.43 |  |  |  |  |  | 6.41 | 3.42 | 8.13 | 7.1 | 5.48 |  |  |
| CCN(CC)C(=O)CCCNC(=O)N1C(c2ccc(OC)cc2OC(C)C)=N[C@H](c2ccc(Cl)cc2)[C@@H]1c1ccc(Cl)cc1 | 4.18 |  |  |  |  |  | 4.26 | 1.38 | 6.45 | 7.54 | 6.93 |  |  |
| CCN(CC)C(=O)CNC(=O)N1C(c2ccc(OC)cc2OC(C)C)=N[C@H](c2ccc(Cl)cc2)[C@@H]1c1ccc(Cl)cc1 | 9.41 |  |  |  |  |  | 5.1 | 4.33 | 12.3 | 5.84 | 6.08 |  |  |
| CCOC(=O)CCNC(=O)N1C(c2ccc(OC)cc2OC(C)C)=N[C@H](c2ccc(Cl)cc2)[C@@H]1c1ccc(Cl)cc1 | 3.36 |  |  |  |  |  | 9.22 | 14.3 | 9.41 | 8.59 | 7.82 |  |  |
| CCOC(=O)[C@@H](C)NC(=O)N1C(c2ccc(OC)cc2OC(C)C)=N[C@H](c2ccc(Cl)cc2)[C@@H]1c1ccc(Cl)cc1 | 0.59 |  |  |  |  |  | 3.73 | 0.31 | 5.52 | 2.2 | 3.78 | 8 |  |
| COc1ccc(C2=N[C@H](c3ccc(Cl)cc3)[C@H](c3ccc(Cl)cc3)N2C(=O)NCCC(=O)O)c(OC(C)C)c1 | 1.07 | Not Active | Not Active | Not Active | Not Active | Not Active |  |  |  |  |  |  |  |
| CCOC(=O)[C@H](C)NC(=O)N1C(c2ccc(OC)cc2OC(C)C)=N[C@H](c2ccc(Cl)cc2)[C@@H]1c1ccc(Cl)cc1 | 0.84 | Not Active | Not Active | Not Active | Not Active | Not Active |  |  |  |  |  |  |  |
| COc1ccc(C2=NC(c3ccc(Cl)cc3)C(c3ccc(Cl)cc3)N2C(=O)N2CCN(C(C)=O)CC2)c(OC(C)C)c1 (stereo not given) |  |  |  |  |  |  | 20.5 | 24 | 33.7 | 40.6 | 19.5 |  |  |
| CCOC(=O)CNC(=O)N1C(c2ccc(OC)cc2OC(C)C)=N[C@H](c2ccc(Cl)cc2)[C@@H]1c1ccc(Cl)cc1 | 4.29 |  |  |  |  |  | 4.74 | 3.63 | 3.88 | 6.89 | 2.93 |  |  |
| COc1ccc(C2=N[C@H](c3ccc(Cl)cc3)[C@H](c3ccc(Cl)cc3)N2C(=O)NCC(=O)N2CCCC2)c(OC(C)C)c1 | 10.3 |  |  |  |  |  | 3.99 | 3.13 | 2.9 | 5.87 | 6.11 |  |  |
| COc1ccc(C2=N[C@H](c3ccc(Cl)cc3)[C@H](c3ccc(Cl)cc3)N2C(=O)NCCCC(=O)O)c(OC(C)C)c1 | 2.05 |  |  |  |  |  | 6.07 | 0.48 | 5.7 | 3.9 | 5.73 |  |  |
| CCOC(=O)CCCNC(=O)N1C(c2ccc(OC)cc2OC(C)C)=N[C@H](c2ccc(Cl)cc2)[C@@H]1c1ccc(Cl)cc1 | 1.66 |  |  |  |  |  | 6.65 | 3.25 | 8.02 | 6.2 | 5.81 |  |  |
| CCN(CC)C(=O)[C@@H](C)NC(=O)N1C(c2ccc(OC)cc2OC(C)C)=N[C@H](c2ccc(Cl)cc2)[C@@H]1c1ccc(Cl)cc1 | 5.01 |  |  |  |  |  | 7.53 | > 50 | 8.56 | 16.8 | 8.48 |  |  |
| COc1ccc(C2=N[C@H](c3ccc(Cl)cc3)[C@H](c3ccc(Cl)cc3)N2C(=O)NCC(=O)N2CCN(C)CC2)c(OC(C)C)c1 | 20.6 |  |  |  |  |  | 4.49 | 3.62 | 6.17 | 3.55 | 3.29 |  |  |
| COc1ccc(C2=N[C@H](c3ccc(Cl)cc3)[C@H](c3ccc(Cl)cc3)N2C(=O)N[C@H](C)C(=O)O)c(OC(C)C)c1 | 3.27 |  |  |  |  |  | 5.95 | 1.67 | 9.2 | 5.59 | 6.7 |  |  |
| CCN(CC)C(=O)CCNC(=O)N1C(c2ccc(OC)cc2OC(C)C)=N[C@H](c2ccc(Cl)cc2)[C@@H]1c1ccc(Cl)cc1 | 0.65 |  |  |  |  |  | 6.39 | 4.03 | 3.13 | 7.26 | 4.62 |  |  |
| COc1ccc(C2=N[C@H](c3ccc(Cl)cc3)[C@H](c3ccc(Cl)cc3)N2C(=O)N[C@H](C)C(=O)N2CCN(C)CC2)c(OC(C)C)c1 | 5.96 |  |  |  |  |  | 3.71 | 2.97 | 2.74 | 6.74 | 3.17 |  |  |
| COc1ccc(C2=N[C@H](c3ccc(Cl)cc3)[C@H](c3ccc(Cl)cc3)N2C(=O)N[C@@H](C)C(=O)N2CCN(C)CC2)c(OC(C)C)c1 | 5.96 | Not Active | Not Active | Not Active | Not Active | Not Active |  |  |  |  |  |  |  |
| COc1ccc(C2=N[C@H](c3ccc(Cl)cc3)[C@H](c3ccc(Cl)cc3)N2C(=O)NCC(=O)O)c(OC(C)C)c1 | 6.18 |  |  |  |  |  | 6.07 | 0.48 | 5.7 | 3.9 | 5.73 |  |  |
| COc1ccc(C2=N[C@H](c3ccc(Cl)cc3)[C@H](c3ccc(Cl)cc3)N2C(=O)NCC(=O)N2CCOCC2)c(OC(C)C)c1 | 5.27 |  |  |  |  |  | 5.63 | 10.9 | 6.25 | 7.02 | 2.99 |  | 5.75 |

Reference: ChEMBL document CHEMBL1944528, “Design, synthesis and CoMFA studies of N1-amino acid substituted 2,4,5-triphenyl imidazoline derivatives as p53-MDM2 binding inhibitors” (Bioorg Med Chem, 2012)
